According to the kinase profiling compilation of Christmann-Franck et al. (2016):
Values joined by “and” are separate entries in the source; they are usually repeats but may differ in a detail not shown here. Equal values may be shown once.

Key:
Experiment in all cases: Caliper, Mobility shift assay off-chip
[1] = biological target: AKT1 (human) (UniProt P31749)
[2] = biological target: AURKC (human) (UniProt Q9UQB9)
[3] = biological target: CAMK2G (human) (UniProt Q13555)
[4] = biological target: CDC42BPB (human) (UniProt Q9Y5S2)
[5] = biological target: CDK1 (human) (UniProt P06493)
[6] = biological target: CDK4 (human) (UniProt P11802)
[7] = biological target: CSNK1D (human) (UniProt P48730); conditions: compound 4.0 µM
[8] = biological target: DAPK1 (human) (UniProt P53355)
[9] = biological target: DDR1 (human) (UniProt Q08345)
[10] = biological target: EPHA1 (human) (UniProt P21709)
[11] = biological target: EPHA2 (human) (UniProt P29317)
[12] = biological target: FLT4 (human) (UniProt P35916)
[13] = biological target: FRK (human) (UniProt P42685); conditions: compound 0.2 µM
[14] = biological target: IGF1R (human) (UniProt P08069)
[15] = biological target: MAPK11 (human) (UniProt Q15759)
[16] = biological target: MAPK13 (human) (UniProt O15264)
[17] = biological target: MERTK (human) (UniProt Q12866)
[18] = biological target: MINK1 (human) (UniProt Q8N4C8)
[19] = biological target: PAK7 (human) (UniProt Q9P286)
[20] = biological target: PASK (human) (UniProt Q96RG2)
[21] = biological target: PDK2 (human) (UniProt Q15119)
[22] = biological target: PIM1 (human) (UniProt P11309)
[23] = biological target: PRKACB (human) (UniProt P22694)
[24] = biological target: PRKCE (human) (UniProt Q02156)
[25] = biological target: PRKCQ (human) (UniProt Q04759)
[26] = biological target: PRKG2 (human) (UniProt Q13237)
[27] = biological target: RPS6KA3 KD1 KD2 (human) (UniProt P51812); conditions: compound 0.2 µM
[28] = biological target: STK10 (human) (UniProt O94804); conditions: compound 0.2 µM
[29] = biological target: STK24 (human) (UniProt Q9Y6E0)
[30] = biological target: TEK (human) (UniProt Q02763)
[31] = biological target: TSSK1B (human) (UniProt Q9BXA7)
[32] = biological target: WNK1 (human) (UniProt Q9H4A3)

Sequence of CDC42BPB (human) (Q9Y5S2 whole entry, looked up): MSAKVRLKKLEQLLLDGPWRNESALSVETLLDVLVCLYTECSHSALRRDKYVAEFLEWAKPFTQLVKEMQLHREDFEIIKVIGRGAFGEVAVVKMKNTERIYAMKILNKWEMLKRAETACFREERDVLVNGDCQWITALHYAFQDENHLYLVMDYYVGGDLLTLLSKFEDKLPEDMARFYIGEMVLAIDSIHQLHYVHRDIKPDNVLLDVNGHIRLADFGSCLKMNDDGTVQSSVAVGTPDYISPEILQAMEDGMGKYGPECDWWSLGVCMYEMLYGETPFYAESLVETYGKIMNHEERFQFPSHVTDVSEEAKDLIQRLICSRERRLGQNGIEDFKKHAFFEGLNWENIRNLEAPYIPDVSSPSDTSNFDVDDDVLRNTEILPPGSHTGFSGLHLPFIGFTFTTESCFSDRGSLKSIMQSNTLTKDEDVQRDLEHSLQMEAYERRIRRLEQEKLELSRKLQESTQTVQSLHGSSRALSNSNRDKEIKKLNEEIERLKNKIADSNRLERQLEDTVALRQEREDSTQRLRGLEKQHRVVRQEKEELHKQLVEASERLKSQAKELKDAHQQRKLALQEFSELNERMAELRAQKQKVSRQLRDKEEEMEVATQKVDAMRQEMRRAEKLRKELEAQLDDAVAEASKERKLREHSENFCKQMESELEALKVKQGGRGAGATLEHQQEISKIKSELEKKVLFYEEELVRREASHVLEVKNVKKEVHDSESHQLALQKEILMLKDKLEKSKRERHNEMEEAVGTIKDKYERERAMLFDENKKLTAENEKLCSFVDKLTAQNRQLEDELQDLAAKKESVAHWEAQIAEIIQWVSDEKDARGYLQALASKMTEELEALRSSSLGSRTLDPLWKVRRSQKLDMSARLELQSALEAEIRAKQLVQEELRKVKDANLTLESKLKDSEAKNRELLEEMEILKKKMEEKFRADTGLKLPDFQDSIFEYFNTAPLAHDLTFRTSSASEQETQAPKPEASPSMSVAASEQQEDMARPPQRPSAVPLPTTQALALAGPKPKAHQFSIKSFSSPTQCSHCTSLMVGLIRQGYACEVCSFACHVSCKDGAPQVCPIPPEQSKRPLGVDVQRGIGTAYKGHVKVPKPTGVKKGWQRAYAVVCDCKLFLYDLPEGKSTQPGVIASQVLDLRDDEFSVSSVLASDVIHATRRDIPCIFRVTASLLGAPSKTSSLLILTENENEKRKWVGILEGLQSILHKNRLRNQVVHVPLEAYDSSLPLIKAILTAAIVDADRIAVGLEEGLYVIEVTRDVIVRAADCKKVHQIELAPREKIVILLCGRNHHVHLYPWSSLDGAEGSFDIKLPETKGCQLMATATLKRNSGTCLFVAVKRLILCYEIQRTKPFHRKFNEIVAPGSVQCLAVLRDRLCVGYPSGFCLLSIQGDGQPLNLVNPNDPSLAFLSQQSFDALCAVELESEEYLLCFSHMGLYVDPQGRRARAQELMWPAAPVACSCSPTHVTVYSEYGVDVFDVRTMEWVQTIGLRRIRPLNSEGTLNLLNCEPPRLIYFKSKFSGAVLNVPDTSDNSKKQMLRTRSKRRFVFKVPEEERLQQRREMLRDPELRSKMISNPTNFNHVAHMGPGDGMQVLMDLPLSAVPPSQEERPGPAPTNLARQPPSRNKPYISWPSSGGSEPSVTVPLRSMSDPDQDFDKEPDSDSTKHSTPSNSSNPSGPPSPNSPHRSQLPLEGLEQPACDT
Sequence of EPHA2 (human) (P29317 whole entry, looked up): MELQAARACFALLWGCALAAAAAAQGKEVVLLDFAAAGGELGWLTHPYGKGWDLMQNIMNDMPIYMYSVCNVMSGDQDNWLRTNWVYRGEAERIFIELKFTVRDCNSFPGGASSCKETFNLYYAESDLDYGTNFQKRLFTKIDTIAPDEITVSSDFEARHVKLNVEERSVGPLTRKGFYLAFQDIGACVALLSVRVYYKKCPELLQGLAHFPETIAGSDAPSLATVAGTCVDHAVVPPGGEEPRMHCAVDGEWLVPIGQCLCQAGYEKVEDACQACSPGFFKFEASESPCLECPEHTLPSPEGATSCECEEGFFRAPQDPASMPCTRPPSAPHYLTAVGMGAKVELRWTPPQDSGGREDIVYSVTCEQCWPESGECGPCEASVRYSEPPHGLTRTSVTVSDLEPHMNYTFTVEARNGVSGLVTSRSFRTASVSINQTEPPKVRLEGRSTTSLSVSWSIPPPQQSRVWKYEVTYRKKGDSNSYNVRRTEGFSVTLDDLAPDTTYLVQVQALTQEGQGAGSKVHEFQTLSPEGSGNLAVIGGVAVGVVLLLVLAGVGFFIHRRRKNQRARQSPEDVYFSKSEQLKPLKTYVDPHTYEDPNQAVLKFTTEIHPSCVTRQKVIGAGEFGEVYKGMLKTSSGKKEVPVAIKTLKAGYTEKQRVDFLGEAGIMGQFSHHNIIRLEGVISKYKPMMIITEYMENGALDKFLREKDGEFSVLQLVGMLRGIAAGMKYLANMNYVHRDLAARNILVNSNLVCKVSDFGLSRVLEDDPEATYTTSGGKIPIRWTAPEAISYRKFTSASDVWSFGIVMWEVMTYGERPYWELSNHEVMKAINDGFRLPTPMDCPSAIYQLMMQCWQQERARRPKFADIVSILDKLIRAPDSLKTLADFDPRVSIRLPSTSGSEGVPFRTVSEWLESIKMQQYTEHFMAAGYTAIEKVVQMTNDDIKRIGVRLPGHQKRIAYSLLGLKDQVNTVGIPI
Sequence of EPHA1 (human) (P21709 whole entry, looked up): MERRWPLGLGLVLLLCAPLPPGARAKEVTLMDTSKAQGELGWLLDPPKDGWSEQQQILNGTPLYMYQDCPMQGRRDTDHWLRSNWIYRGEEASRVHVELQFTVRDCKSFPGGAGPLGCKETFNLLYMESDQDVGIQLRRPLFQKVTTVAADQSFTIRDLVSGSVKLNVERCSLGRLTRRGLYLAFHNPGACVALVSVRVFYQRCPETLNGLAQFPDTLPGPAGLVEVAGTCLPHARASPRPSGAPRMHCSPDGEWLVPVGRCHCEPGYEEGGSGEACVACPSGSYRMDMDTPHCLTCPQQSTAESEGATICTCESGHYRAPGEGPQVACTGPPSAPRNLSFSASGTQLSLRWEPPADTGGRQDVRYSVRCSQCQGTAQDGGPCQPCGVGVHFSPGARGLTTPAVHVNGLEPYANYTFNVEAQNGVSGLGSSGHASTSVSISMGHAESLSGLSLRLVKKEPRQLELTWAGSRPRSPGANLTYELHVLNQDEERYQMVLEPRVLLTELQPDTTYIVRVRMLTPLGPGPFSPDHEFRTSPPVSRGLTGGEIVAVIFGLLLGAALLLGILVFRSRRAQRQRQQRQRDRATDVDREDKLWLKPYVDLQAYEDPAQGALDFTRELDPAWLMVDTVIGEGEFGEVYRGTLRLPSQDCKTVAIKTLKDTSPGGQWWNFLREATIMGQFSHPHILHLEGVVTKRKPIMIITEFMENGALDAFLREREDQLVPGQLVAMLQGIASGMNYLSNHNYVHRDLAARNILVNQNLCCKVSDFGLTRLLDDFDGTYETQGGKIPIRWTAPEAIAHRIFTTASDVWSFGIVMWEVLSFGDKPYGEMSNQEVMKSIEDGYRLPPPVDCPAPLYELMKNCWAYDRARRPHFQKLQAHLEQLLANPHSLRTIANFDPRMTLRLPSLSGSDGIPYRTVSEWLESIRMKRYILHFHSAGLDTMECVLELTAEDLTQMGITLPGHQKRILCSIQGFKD
Sequence of FLT4 (human) (P35916 whole entry, looked up): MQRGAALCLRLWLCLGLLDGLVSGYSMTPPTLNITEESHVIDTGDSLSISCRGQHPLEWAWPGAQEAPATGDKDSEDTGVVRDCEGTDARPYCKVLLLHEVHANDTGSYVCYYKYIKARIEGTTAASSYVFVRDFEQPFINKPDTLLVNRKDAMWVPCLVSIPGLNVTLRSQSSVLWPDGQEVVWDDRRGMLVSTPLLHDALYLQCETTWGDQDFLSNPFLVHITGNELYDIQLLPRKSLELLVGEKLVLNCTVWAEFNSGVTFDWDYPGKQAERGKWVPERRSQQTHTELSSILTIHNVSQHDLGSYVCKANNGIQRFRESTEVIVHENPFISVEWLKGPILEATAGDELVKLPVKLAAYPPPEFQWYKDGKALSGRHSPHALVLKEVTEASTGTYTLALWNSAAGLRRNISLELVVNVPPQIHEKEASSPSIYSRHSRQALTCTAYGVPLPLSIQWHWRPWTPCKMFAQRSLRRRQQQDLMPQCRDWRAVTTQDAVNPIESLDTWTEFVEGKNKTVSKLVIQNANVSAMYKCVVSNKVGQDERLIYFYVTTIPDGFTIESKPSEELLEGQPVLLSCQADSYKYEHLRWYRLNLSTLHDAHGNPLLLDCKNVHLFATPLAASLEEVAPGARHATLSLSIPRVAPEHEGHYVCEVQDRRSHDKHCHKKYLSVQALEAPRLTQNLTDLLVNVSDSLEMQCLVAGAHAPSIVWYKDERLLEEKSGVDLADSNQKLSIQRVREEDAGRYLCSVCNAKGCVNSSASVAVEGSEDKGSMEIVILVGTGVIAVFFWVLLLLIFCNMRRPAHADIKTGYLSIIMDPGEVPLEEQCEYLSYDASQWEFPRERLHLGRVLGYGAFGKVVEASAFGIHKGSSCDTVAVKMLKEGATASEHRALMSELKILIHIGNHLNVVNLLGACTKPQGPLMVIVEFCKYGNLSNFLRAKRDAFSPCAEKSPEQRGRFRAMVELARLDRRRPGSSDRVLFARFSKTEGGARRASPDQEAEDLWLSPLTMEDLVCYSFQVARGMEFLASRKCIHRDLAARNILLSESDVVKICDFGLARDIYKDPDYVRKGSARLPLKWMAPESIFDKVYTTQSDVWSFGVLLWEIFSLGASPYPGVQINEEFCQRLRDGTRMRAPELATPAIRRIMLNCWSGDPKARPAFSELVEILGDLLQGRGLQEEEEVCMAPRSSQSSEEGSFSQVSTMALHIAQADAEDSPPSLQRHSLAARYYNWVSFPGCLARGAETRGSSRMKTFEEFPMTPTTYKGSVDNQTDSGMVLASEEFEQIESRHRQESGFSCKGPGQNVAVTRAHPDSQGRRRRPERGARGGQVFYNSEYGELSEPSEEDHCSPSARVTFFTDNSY

CCN(CC)CCNC(=O)c1c(C)[nH]c(/C=C2\C(=O)Nc3ccc(F)cc32)c1C
inhibition ([1]; compound 0.2 µM): -0.8% | inhibition ([1]; compound 4.0 µM): 35.7% | inhibition ([2]; compound 0.2 µM): 23.2% | inhibition ([2]; compound 4.0 µM): 87.1% | inhibition ([3]; compound 0.2 µM): 49.6% | inhibition ([3]; compound 4.0 µM): 96.2% | inhibition ([4]; compound 0.2 µM): -0.5% | inhibition ([4]; compound 4.0 µM): 14.2% | inhibition ([5]; compound 0.2 µM): -3% | inhibition ([5]; compound 4.0 µM): 16% | inhibition ([6]; compound 0.2 µM): 16.6% | inhibition ([6]; compound 4.0 µM): 62.5% | inhibition [7]: 86.1% and 97.8% | inhibition ([8]; compound 0.2 µM): 64.4% | inhibition ([8]; compound 4.0 µM): 98.7% | inhibition ([9]; compound 0.2 µM): 71.8% | inhibition ([9]; compound 4.0 µM): 96.6% | inhibition ([10]; compound 0.2 µM): 8.2% | inhibition ([10]; compound 4.0 µM): 66.9% | inhibition ([11]; compound 0.2 µM): -1.9% | inhibition ([11]; compound 4.0 µM): 24.9% | inhibition ([12]; compound 0.2 µM): 88.2% | inhibition ([12]; compound 4.0 µM): 101% | inhibition [13]: 29.7% | inhibition ([14]; compound 0.2 µM): 40.1% | inhibition ([14]; compound 4.0 µM): 93% | inhibition ([15]; compound 0.2 µM): -1.4% | inhibition ([15]; compound 4.0 µM): -3.1% | inhibition ([16]; compound 0.2 µM): -3.4% | inhibition ([16]; compound 4.0 µM): -4.3% | inhibition ([17]; compound 0.2 µM): 96% | inhibition ([17]; compound 4.0 µM): 104% | inhibition ([18]; compound 0.2 µM): 56.6% | inhibition ([18]; compound 4.0 µM): 99.7% | inhibition ([19]; compound 0.2 µM): 20.1% | inhibition ([19]; compound 4.0 µM): 77.7% | inhibition ([20]; compound 0.2 µM): -4% | inhibition ([20]; compound 4.0 µM): 17.8% | inhibition ([21]; compound 0.2 µM): -1.2% | inhibition ([21]; compound 4.0 µM): 26% | inhibition ([22]; compound 0.2 µM): -0.2% | inhibition ([22]; compound 4.0 µM): 19.2% | inhibition ([23]; compound 0.2 µM): -0.1% | inhibition ([23]; compound 4.0 µM): 48.3% | inhibition ([24]; compound 0.2 µM): 4.4% | inhibition ([24]; compound 4.0 µM): 11% | inhibition ([25]; compound 0.2 µM): 1.3% | inhibition ([25]; compound 4.0 µM): 31.2% | inhibition ([26]; compound 0.2 µM): 9.3% | inhibition ([26]; compound 4.0 µM): 65.5% | inhibition [27]: 61.7% | inhibition [28]: 62.1% | inhibition ([29]; compound 0.2 µM): 47.8% | inhibition ([29]; compound 4.0 µM): 95.7% | inhibition ([30]; compound 0.2 µM): -3.6% | inhibition ([30]; compound 4.0 µM): 15.3% | inhibition ([31]; compound 0.2 µM): 63.2% | inhibition ([31]; compound 4.0 µM): 95.5% | inhibition ([32]; compound 0.2 µM): 3.2% | inhibition ([32]; compound 4.0 µM): 4.9%
